Experimental data published in patent US20120034242A1, “CYTOKINE-EXPRESSING CELLULAR VACCINE COMBINATIONS” (BIOSANTE PHARMACEUTICALS, INC., priority 2003, published 2012).

Tests used:
Assay type in all cases: in vivo, mice
[1] = test system: ovalbumin-specific TCR transgenic T cells (OT-1); test: B16 ovalbumin model: tracking of ovalbumin-specific TCR transgenic T cells (OT-1); conditions: data not shown
Description: B16.ova and B16.GM.ova tumors are B16 cells or B16 cells expressing GM-CSF that were modified to express membrane bound ovalbumin. Ovalbumin acts as a surrogate tumor associated antigen on the tumor cells used for challenge as well as on the vaccine cells. Ovalbumin-specific T cells are used to track “tumor specific” T cell responses in the presence or absence of cells expressing GM-CSF (B16.GM-ova) alone or in combination with another cancer therapeutic agent. An antibody specifically recognizing the T-cell receptor of the ovalbumin specific T-cells is used to follow these “tumor-specific” T-cells. This antibody can be used to monitor the expansion of these tumor-specific T-cells and their activation status following various vaccination regiments. In one exemplary experimental approach, mice received via adoptive transfer ovalbumin-specific T-cells on day −2, are challenged with B16F10.ova on day 0, are vaccinated with B16F10.GM-ova on day 3 and then treated with at least one additional cancer therapeutic agent such as taxotere on day 5 and 9 (6 mg/kg), followed by monitoring of OVA-specific T cells at various time points after vaccination.

B16 tumor = test: B16 melanoma model: B16-GM vaccine plus docetaxel
Procedure: FIG. 8A illustrates the results of a study in the B16F10 melanoma model wherein the effect of 3 IV injections of docetaxel (total dose 18 mg/kg) administered on days 5, 9, and 13 was evaluated with respect to the percentage of mice that survived.
FIG. 8B illustrates the study carried out to generate the data shown in FIGS. 8C and D. The study was performed in the B16F10 melanoma model and compared the efficacy of one cycle of a GM-CSF secreting tumor cell vaccine administration combined with one cycle of Taxotere administration to three cycles of vaccine plus three cycles of taxotere.
FIGS. 8C and 8D illustrate the results of a study in the B16F10 melanoma model (carried out as described in FIG. 8B) wherein the effect of a cytokine-expressing cellular vaccine was evaluated in combination with docetaxel (total dose 18 mg/kg) administered on days 5, 9, and 13. Administration of docetaxel given between bi-weekly vaccinations (three vaccinations total; three cycles) increased the median survival of B16 tumor-bearing mice from 31 days to 52 days when compared to three B16-GM vaccinations alone. […]
The combination of docetaxel and a GM-CSF-secreting B16F10 tumor cell (B16-GM) vaccine was evaluated in the B16 melanoma model. […]

B16F10 = B16F10 model: B16-GM vaccine plus Celebrex; conditions: single agent; preliminary results
Procedure: FIGS. 9A and 9B illustrate the results of a study in the B16F10 melanoma model wherein the effect of a cytokine-expressing cellular vaccine was evaluated in combination with Celebrex (Celecoxib: 50 mg/kg/day in the feed starting on Day −7). Mice were challenged on Day 0 with 1×10^5 live B16F10 cells at a dorsal location and were vaccinated on Day 3 with 1×10^6 irradiated dB16gmtd cells at a ventral location.

SMILES | survival of ovalbumin-specific TCR transgenic T cells (OT-1) [1] | inhibiting B16 tumor growth (B16 tumor; monotherapy, three IV injections, total dose 18 mg/kg) | Median Survival (B16 tumor; one cycle: vaccine three days after challenge, docetaxel IV days 5, 9, 13 (total 18 mg/kg)) [days] | effect on B16F10 tumor size and overall survival (B16F10)
CC(=O)O[C@@]12CO[C@@H]1C[C@H](O)[C@@]1(C)C(=O)[C@H](O)C3=C(C)[C@@H](OC(=O)[C@H](O)[C@@H](NC(=O)OC(C)(C)C)c4ccccc4)C[C@@](O)([C@@H](OC(=O)c4ccccc4)[C@H]21)C3(C)C [docetaxel] | prolongs | ineffective | 24 | –
Cc1ccc(-c2cc(C(F)(F)F)nn2-c2ccc(S(N)(=O)=O)cc2)cc1 [Celebrex, Celecoxib] | – | – | – | no effect
